Read-outs that look alike come from different tables or passages of the source.
Legend:
KV10.1 = target: T1, KV10.1 (Homo sapiens, UniProt O95259); assay: Whole-cell patch clamp on HEK-293 cells stably expressing KV10.1; type: cell-based
T1 construct: expressed in transfected cells
T1 sequence (O95259 1-962 isoform O95259-2): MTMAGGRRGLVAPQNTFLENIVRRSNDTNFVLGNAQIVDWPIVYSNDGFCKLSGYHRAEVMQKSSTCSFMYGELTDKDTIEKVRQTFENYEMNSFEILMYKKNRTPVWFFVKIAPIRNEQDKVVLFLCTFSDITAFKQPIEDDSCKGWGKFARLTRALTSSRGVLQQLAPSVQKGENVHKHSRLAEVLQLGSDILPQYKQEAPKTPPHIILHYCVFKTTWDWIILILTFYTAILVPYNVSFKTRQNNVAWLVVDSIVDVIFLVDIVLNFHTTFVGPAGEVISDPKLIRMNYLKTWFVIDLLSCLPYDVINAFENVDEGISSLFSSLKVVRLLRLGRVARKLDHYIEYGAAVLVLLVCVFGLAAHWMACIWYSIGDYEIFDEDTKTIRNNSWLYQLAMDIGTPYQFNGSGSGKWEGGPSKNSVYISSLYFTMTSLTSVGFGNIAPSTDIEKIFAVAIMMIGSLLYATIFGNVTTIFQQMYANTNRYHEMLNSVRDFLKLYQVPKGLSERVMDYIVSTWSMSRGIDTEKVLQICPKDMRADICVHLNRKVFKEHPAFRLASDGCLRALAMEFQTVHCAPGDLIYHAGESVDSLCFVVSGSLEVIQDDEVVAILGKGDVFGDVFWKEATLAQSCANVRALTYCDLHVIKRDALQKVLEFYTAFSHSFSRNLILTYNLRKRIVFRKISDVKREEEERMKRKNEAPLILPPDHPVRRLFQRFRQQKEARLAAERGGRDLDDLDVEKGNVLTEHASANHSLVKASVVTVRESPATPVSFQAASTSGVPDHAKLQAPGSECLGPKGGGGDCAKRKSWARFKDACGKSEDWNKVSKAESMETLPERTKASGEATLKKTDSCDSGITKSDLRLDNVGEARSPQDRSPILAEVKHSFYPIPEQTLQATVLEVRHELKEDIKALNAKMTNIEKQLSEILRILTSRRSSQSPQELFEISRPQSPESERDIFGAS
Procedure: (§1) Whole-cell patch clamp experiments were performed on stably transfected HEK-293 cells. The cells were grown on fibronectin-coated glass coverslips in DMEM supplemented with 10% FCS and 300 µg/mL Zeocin. Experiments were performed at room temperature under continuous perfusion. The extracellular solution contained (mM) 160 NaCl, 2.5 KCl, 2 CaCl2, 1 MgCl2, 10 Hepes/NaOH, pH 7.4, 8 glucose. For the experiments determining conductance–voltage relationships, tail currents were made visible by substituting 60 mM NaCl by KCl ([…], 100 NaCl). Pipettes were pulled from #1 glass capillaries (WPI) to resistances of 1–3 MΩ when loaded with the intracellular solution (100 KCl, 45 N-methyl-D-glucamine, 10 1,2-bis(o-aminophenoxy)ethane-N,N,N′,N′-tetraacetic acid (BAPTA), 10 Hepes pH 7.35). Data acquisition was performed using a EPC10 Plus amplifier (HEKA Elektronik) and Patch Master software. Drug application was performed using an 8-channel fast solution exchanger (ALA). All compounds were dissolved in DMSO to a final concentration of 10 mM. 0.5% DMSO in extracellular solution served as control. KV10.1 currents were elicited by 500 ms depolarisations to +40 mV under continuous perfusion with the compound-containing or control solution. hERG current amplitudes were measured as the peak tail current during a 4 s repolarization to −40 mV after a depolarising pulse to +20 mV lasting for 2 s.
The nine selected in silico hits were tested by manual patch-clamp on a HEK293 cell line stably expressing KV10.1 [33] at a compound concentration of 50 μM (Table 1). Compound activity was tested by determining the current amplitude elicited by repetitive stimuli to +40 mV from a holding potential of −80 mV. […] The hit compound ZVS-08 represents a new structural class of KV10.1 inhibitors with diarylamine structure and has a unique structure among the acquired virtual screening hits. […] The most notable change from the purpurealidin analogues is the replacement of the hydrogen bond acceptor group of the amide bond with the oxygen atom of the nitro group of ZVS-08.

hERG = target: T2, hERG (Homo sapiens, UniProt Q12809); assay: Whole-cell patch clamp on stably transfected HEK-293 cells, hERG tail current; type: cell-based; conditions: peak tail current at −40 mV after +20 mV
T2 construct: expressed in transfected cells
Procedure: as §1

[1] = tested on: Salmonella typhimurium strain TA98; assay: Salmonella/microsomal reverse mutation (Ames) assay, TA98; parameters: key to bacterial background lawn: slightly reduced bacterial background; moderately reduced bacterial background; extremely reduced bacterial background; bacterial background is absent; conditions: for mutagenic response: TA98, 0.0158–0.158 mg/plate, −S9 and +S9; for cytotoxic concentration to bacterial strain: TA98, −/+ S9 metabolic activation; for induction factor (IF): IF ≥ 2 positive
Procedure: Mutagenicity of compounds ZVS-08 and 8 was tested with the Salmonella/microsomal reverse mutation (Ames) assay on Salmonella typhimurium strains TA98 and TA100 without and with external metabolic activation according to the OECD guidelines (OECD TG 471) with minor modifications. Briefly, 100 µL of ZVS-08 and 8 (0.158, 0.5, 1.58, 5, 15.8, and 50 mg/mL corresponding to the final concentration of 0.0158, 0.05, 0.158, 0.5, 1.58, and 5 mg/plate, respectively), […] bacterial culture of S. typhimurium (overnight culture at 37 °C), and […] of phosphate buffer (for assays without metabolic activation) or 10% S9 mix (for assays with metabolic activation) were added to 2 mL of molten top agar (supplemented with histidine/biotin, final concentration 0.05 mM), gently mixed and poured onto minimal agar plates. The number of His+ revertants was counted after 48 h (TA100) and 72 h (TA98) of incubation at 37 °C. Three plates were used per treatment point. The mutagenic potential of the compounds was expressed as an induction factor (IF), where IF = (number of revertants in the presence of the compound)/(number of revertants in solvent control). Additionally, each plate was checked for possible toxic effects of tested compounds. […] 4-nitroquinoline- N-oxide (4-NQNO; 0.25 μg/plate) for TA98 and sodium azide (NaN3; 0.25 μg/plate) for TA100 were used as positive controls without S9 metabolic activation, while benzo[a]pyrene (B[a]P; 2.5 μg/plate) was used as positive controls for both bacterial strains with S9 metabolic activation.

[2] = HEK-293, 500 ms depolarisation to +40 mV, read-out: IC50 Kv10.1

T2 sequence (Q12809 whole entry): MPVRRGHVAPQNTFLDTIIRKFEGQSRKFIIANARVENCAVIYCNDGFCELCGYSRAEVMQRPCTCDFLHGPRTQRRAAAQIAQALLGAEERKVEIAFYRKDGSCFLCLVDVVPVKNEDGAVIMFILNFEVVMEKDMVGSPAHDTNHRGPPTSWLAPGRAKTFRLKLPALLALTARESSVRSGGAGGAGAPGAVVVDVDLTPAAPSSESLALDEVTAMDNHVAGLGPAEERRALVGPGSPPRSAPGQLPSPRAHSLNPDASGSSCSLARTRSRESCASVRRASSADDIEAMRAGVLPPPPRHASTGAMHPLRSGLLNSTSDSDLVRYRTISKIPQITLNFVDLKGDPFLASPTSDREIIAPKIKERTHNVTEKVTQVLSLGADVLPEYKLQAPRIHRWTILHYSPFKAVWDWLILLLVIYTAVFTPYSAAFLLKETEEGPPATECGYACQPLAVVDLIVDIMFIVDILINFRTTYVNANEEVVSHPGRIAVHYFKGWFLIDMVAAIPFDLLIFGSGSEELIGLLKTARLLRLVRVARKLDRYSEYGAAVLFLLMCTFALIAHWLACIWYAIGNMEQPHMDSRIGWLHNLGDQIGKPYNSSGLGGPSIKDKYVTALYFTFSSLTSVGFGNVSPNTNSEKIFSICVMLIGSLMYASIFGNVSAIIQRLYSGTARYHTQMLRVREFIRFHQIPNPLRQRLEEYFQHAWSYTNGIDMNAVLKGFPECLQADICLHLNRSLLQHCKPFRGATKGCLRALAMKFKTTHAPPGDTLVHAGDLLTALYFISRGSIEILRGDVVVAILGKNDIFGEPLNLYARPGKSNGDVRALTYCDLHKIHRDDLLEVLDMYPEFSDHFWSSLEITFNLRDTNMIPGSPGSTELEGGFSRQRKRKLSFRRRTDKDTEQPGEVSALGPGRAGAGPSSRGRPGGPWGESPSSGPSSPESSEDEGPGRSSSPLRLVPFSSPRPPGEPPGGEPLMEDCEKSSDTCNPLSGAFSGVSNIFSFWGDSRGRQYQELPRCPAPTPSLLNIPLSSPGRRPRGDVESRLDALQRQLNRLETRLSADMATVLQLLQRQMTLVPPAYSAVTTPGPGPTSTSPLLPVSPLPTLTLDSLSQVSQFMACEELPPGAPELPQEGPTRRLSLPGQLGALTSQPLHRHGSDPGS

O=[N+]([O-])c1cc(C(F)(F)F)ccc1Nc1ccc(OCC(O)CN2CCOCC2)cc1 (centres unmarked) [Compound 8]
IC50 (KV10.1; [2]): 1010 nM
IC50 (hERG): 156 nM
mutagenic response [1]: no mutagenic response
cytotoxic concentration to bacterial strain [1]: ≥ 0.5 mg/plate

CN(C)CC(O)COc1ccc(Nc2ccc(C(F)(F)F)cc2[N+](=O)[O-])cc1 (centres unmarked) [ZVS-08]
inhibition at 50 µM (KV10.1; HEK293, compound concentration 50 μM, stimuli to +40 mV, mean ± standard error, read-out: Effect on Kv10.1 (% Inhibition)): 80.27 ± 0.63%
IC50 (KV10.1; [2]): 3700 nM
semi-maximal activation (conductance–voltage relationship) (KV10.1; in the presence of 5 µM ZVS-08, 4.39 ± 1.9 mV in the absence): −29.88 ± 1.8 mV
IC50 (KV10.1; same IC50 in presence and absence of 500 nM astemizole, end of 500 ms pulse to +40 mV, read-out: IC50 Kv10.1, competition with astemizole): 1690 nM
IC50 (KV10.1; same IC50 in presence and absence of 1 µM mibefradil, end of 500 ms pulse to +40 mV, read-out: IC50 Kv10.1, competition with mibefradil): 1470 nM
IC50 (hERG): 194 nM
mutagenic response [1]: no mutagenic response
Average number of revertant colonies (mean ± SD) ([1]; TA98, +S9, 0.0158 mg/plate): 31.00 ± 3.61
induction factor (IF) ([1]; TA98, +S9, 0.0158 mg/plate): 0.85
Average number of revertant colonies (mean ± SD) ([1]; TA98, +S9, 0.05 mg/plate): 45.33 ± 8.62
induction factor (IF) ([1]; TA98, +S9, 0.05 mg/plate): 1.25
Average number of revertant colonies (mean ± SD) ([1]; TA98, +S9, 0.158 mg/plate): 34.67 ± 14.05
bacterial background lawn ([1]; TA98, +S9, 0.158 mg/plate): a
induction factor (IF) ([1]; TA98, +S9, 0.158 mg/plate): 0.95
Average number of revertant colonies (mean ± SD) ([1]; TA98, +S9, 0.5 mg/plate): 0
bacterial background lawn ([1]; TA98, +S9, 0.5 mg/plate): b
Average number of revertant colonies (mean ± SD) ([1]; TA98, +S9, 1.58 mg/plate): 0
bacterial background lawn ([1]; TA98, +S9, 1.58 mg/plate): d
Average number of revertant colonies (mean ± SD) ([1]; TA98, +S9, 5 mg/plate): 0
bacterial background lawn ([1]; TA98, +S9, 5 mg/plate): d
Average number of revertant colonies (mean ± SD) ([1]; TA98, -S9, 0.0158 mg/plate): 21.67 ± 4.51
induction factor (IF) ([1]; TA98, -S9, 0.0158 mg/plate): 0.86
Average number of revertant colonies (mean ± SD) ([1]; TA98, -S9, 0.05 mg/plate): 22.67 ± 8.08
induction factor (IF) ([1]; TA98, -S9, 0.05 mg/plate): 0.89
Average number of revertant colonies (mean ± SD) ([1]; TA98, -S9, 0.158 mg/plate): 17.67 ± 3.79
bacterial background lawn ([1]; TA98, -S9, 0.158 mg/plate): a
induction factor (IF) ([1]; TA98, -S9, 0.158 mg/plate): 0.70
Average number of revertant colonies (mean ± SD) ([1]; TA98, -S9, 0.5 mg/plate): 0
bacterial background lawn ([1]; TA98, -S9, 0.5 mg/plate): c
Average number of revertant colonies (mean ± SD) ([1]; TA98, -S9, 1.58 mg/plate): 0
bacterial background lawn ([1]; TA98, -S9, 1.58 mg/plate): d
Average number of revertant colonies (mean ± SD) ([1]; TA98, -S9, 5 mg/plate): 0
bacterial background lawn ([1]; TA98, -S9, 5 mg/plate): d
cytotoxic concentration to bacterial strain [1]: ≥ 0.5 mg/plate
